Assay: Toxicology summary: maximum dose after oral administration, rats
Format: in vivo
Text: Toxicology summary. In mice and rats, the maximum fexinidazole (FEX) dose after oral administration is 10 g/kg of body weight. […] Finally, as regards PK, labeled FEX and its metabolites were excreted within 3 days in the feces (52-58%) and urine (36-40%).

## CSc1ccc(OCc2ncc([N+](=O)[O-])n2C)cc1 [Fexinidazole, fexinidazole]
  maximum dose after oral administration: 10 g/kg of body weight
